The subject of data set [1] is β-hexosaminidase release from RBL-2H3 cells. Conditions: cited from earlier work.
The next data set concerns BalbC mice. The experiment in a line: Arachidonic acid mouse ear oedema model. It counts as in vivo. Conditions: 300 μg/ear in acetone, topical; arachidonic acid alone 86%. As for the experimental part: The arrachidonic mouse ear oedema model is an acute inflammation model based on activation of ecosanoid pathways. The mouse ear oedema model was performed using BalbC mice (25-35 g), of either sex. The ear was treated by the topical application (10 μl) of solvent (acetone 100%) or test drug (300 μg/ear in acetone) or Indomethacin (300 μg/ear in acetone). After one hour, oedema was induced by the topical application of arachidonic acid (10 μl at 0.4 g/ml in acetone). The width of each ear was measured, both before and 60 min after the induction of oedema, using a micrometer screw gauge. Ear oedema was calculated by comparing the ear width before and after induction of oedema and expressed as percentage normal. Animals were killed using CO2, without recovering from sedation.

Data set [2] concerns IL-2 secretion from Jurkat T cells. Nature of the data set: IL-2 secretion from activated Jurkat T cells (ELISA). It counts as cell-based, human. Conditions: for IL-2 [ ]pg/ml (1) / IL-2 % Control (1): experiment (1); for IL-2 % Control (1) / IL-2 % Control (2) / IL-2 % Control (3): relative to DMSO 0.1%; for IL-2 [ ]pg/ml (2) / IL-2 % Control (2): experiment (2); for IL-2 [ ]pg/ml (3) / IL-2 % Control (3): experiment (3). As for the experimental part: The T cell line Jurkat 6.1 (ATCC) was used. Cells were pre-treated for 30 min with 1 μM or 10 μM of the respective compound and then stimulated with plate-bound anti-CD3 (BD Pharmingen) and anti-CD28 (AnCell). DMSO was used as vehicle control. The immunosuppressive agent Cyclosporine A was used as a control for inhibition of IL-2 production. After 24 hs the supernatant was collected and IL-2 secretion was measured by ELISA.
Jurkat T cells were cultured in RMPI-1640 medium containing 10 % Foetal Bovine Serum, Penicillin/Streptomycin and L-Glutamine in T-75cm2 flasks at 37° C. and 5 % CO2. Cells were seeded into new culture flasks at a density of 1-3×10^5 cells per ml and maintained at a density of 0.5−1×10^6 cells per ml.
(§1) (A) Anti-TCR/CD28-mediated activation of Jurkat cells: Experiments involving anti-TCR/CD28-mediated activation of Jurkat T lymphocytes were carried out on 24-well cell culture plates. The plates were coated with a 1/100 dilution of rabbit anti-mouse IgG in sterile PBS (1×) and incubated overnight at 4OC. Unbound antibody was aspirated and the wells were gently rinsed with warm sterile PBS. The PBS was aspirated and the wells were coated with a 1/100 dilution of anti-TCR antibody (OKT-3) and a 1/200 dilution of anti-CD28 antibody (both antibodies pre-mixed prior to addition to the plates) in sterile PBS. The plates were then incubated for 1-2 hours at 37° C. Unbound antibody was aspirated and the wells were gently rinsed with warm PBS. The PBS was left on the plate until the Jurkat cells were ready to be added to the plate. The Jurkat cells were harvested from the T-75cm2 cell culture flasks and resuspended at a density of 0.5×10^6 cells per ml. The compounds were dissolved at a specified stock concentration (see results section) and diluted to the required concentration by adding the drug to the cell suspension. The cells were then pre-incubated with the compounds or with an equivalent volume of drug vehicle control (DMSO) for 30 minutes prior to adding the cell suspension to the antibody-coated plates. Cyclosporine A (1 μM) was used as a positive control to inhibit IL-2 production from activated T cells and was preincubated with the 6 cells as described above in parallel. The cells were then incubated on the plates with the acti-TCR/CD28 antibodies for 24 hours at 37° C. and 5% CO2 in a humidified atmosphere. After 24 hours, the cell suspension was removed from the plates and the cells were pelleted by centrifugation. The cell culture supernatant was saved and analysed for secreted IL-2 by ELISA. The cell pellet was saved and cell viability was measured using Acridine Orange/Ethidium Bromide cell viability staining solution.
(B) PHA/PMA-mediated activation of Jurkat cells Jurkat cells were resuspended at a concentration of 0.5×10^6 cells per ml and the Pharmatrin compounds at the desired concentration or an equivalent volume of drug vehicle control (DMSO) were added to the cells and incubated for 30 minutes. Cyclosporine A (1 ∝M) was used as a positive control to inhibit IL-2 production from activated T cells and was preincubated with the cells as described above in parallel. PHA and PMA were added to the cell suspension (10 ∝g/ml and 10 ng/ml respectively) and the cells were plated onto uncoated 24-well plates. The cells were incubated on the plates for 24 hours at 37° C. and 5 % CO2 in a humidified atmosphere. After 24 hours, the cell suspension was removed from the plates and the cells were pelleted by centrifugation. The cell culture supernatant was saved and analysed for secreted IL-2 by ELISA.
The cell culture supernatants were analysed for IL-2 by ELISA (96-well plate format) using the Human IL-2 ELISA kit from R&D Systems Europe. This assay was carried out using the standard protocol outlined by the company. Samples and standards (recombinant human IL-2 provided by R&D Systems) were analysed in triplicate. […]
A general note: In an ELISA, binding on a coated surface is turned into a signal by an enzyme label.

For another data set, the system named is Jurkat cells. The experiment in a line: Jurkat cell viability (Acridine Orange/Ethidium Bromide). It counts as cell-based. As for the experimental part: as §1
The cell pellet was resuspended in 20 μl of Acridine Orange/Ethidium Bromide staining solution. A portion of this cell suspension was placed on a haemocytometer and analysed under a fluorescence microscope. […] The ratio of viable cells: non-viable cells were calculated for each activation time point/drug treatment.

[3] abbreviates: RBL-2H3 cells, Inflamm. Res. 57 (2008).

Where two headings read alike, the source gives them in different places.

`O[C@@H]1c2ccccc2C[C@]1(Cc1ccccc1)C1=Cc2ccccc2C1` (racemic) [Compound 5, (R,S and SR)2-Benzyl-2,3-dihydro-1H,1′H-2,2′-biinden-1-ol]: the “inhibition of β-hexosaminidase release” value in data set [1] (setting [3]) was “dose dependent inhibition”.
With `COc1ccc2c(c1)c(CC(=O)O)c(C)n2C(=O)c1ccc(Cl)cc1` [Indomethacin, reference compound], the “ear swelling (increase in ear thickness)” value in the data set on BalbC mice is on record as 40%.
For “(S,S and RR)2-Benzyl-2,3-dihydro-1H,1′H-2,2′-biinden-1-ol [Compound 6]”, the “inhibition of β-hexosaminidase release” value in data set [1] (RBL-2H3 cells stimulated by calcium ionophore A23187, Bioorg. Med. Chem. Lett. 19(20), 2009) is listed as “dose-dependant inhibition”; in data set [1] (setting [3]), “dose dependent inhibition”.
As for “(R,S or SR)2-Benzyl-2,3-dihydro-1H,1′H-2,2′-biinden-1-ol [Compound 7]”, the “IL2 release from Jurkat cells” value in data set [2] is “inhibited IL2 release”. Besides, in data set [2] (0.3 uM), the “IL-2 [ ]pg/ml (1)” value amounted to 44.65 pg/mL, the “IL-2 % Control (1)” value was 218.87%, the “IL-2 [ ]pg/ml (2)” value was 93.65 pg/mL and the “IL-2 % Control (2)” value was 143.42%. For the same compound, in data set [2] (0.3 uM), the “IL-2 [ ]pg/ml (3)” value was found to be 112.94 pg/mL and the “IL-2 % Control (3)” value turned out to be 85.85%. In addition, in data set [2] (1 uM), the “IL-2 [ ]pg/ml (1)” value stood at 49.20 pg/mL, the “IL-2 % Control (1)” value came out at 241.18%, the “IL-2 [ ]pg/ml (2)” value was 71.40 pg/mL and the “IL-2 % Control (2)” value is 109.34%. In data set [2] (1 uM), the “IL-2 [ ]pg/ml (3)” value worked out at 109.59 pg/mL and the “IL-2 % Control (3)” value is on record as 83.31%. Also, in data set [2] (3 uM), the “IL-2 [ ]pg/ml (1)” value was determined as 43.25 pg/mL, the “IL-2 % Control (1)” value is 212.01%, the “IL-2 [ ]pg/ml (2)” value was found to be 45.10 pg/mL and the “IL-2 % Control (2)” value came to 69.07%. In data set [2] (3 uM), the “IL-2 [ ]pg/ml (3)” value was 97.25 pg/mL and the “IL-2 % Control (3)” value was found to be 73.92%. Besides, in data set [2] (10 uM), the “IL-2 [ ]pg/ml (1)” value came to 24.75 pg/mL, the “IL-2 % Control (1)” value is on record as 121.32%, the “IL-2 [ ]pg/ml (2)” value amounted to 36.75 pg/mL and the “IL-2 % Control (2)” value turned out to be 56.28%. In addition, in data set [2] (10 uM), the “IL-2 [ ]pg/ml (3)” value was determined as 81.84 pg/mL and the “IL-2 % Control (3)” value was determined as 62.21%. Also, in data set [2] (30 uM), the “IL-2 [ ]pg/ml (1)” value was determined as 10.10 pg/mL, the “IL-2 % Control (1)” value is reported as 49.51%, the “IL-2 [ ]pg/ml (2)” value was found to be 27.80 pg/mL and the “IL-2 % Control (2)” value stood at 42.57%. In data set [2] (30 uM), the “IL-2 [ ]pg/ml (3)” value was 32.00 pg/mL and the “IL-2 % Control (3)” value worked out at 24.32%. In addition, in data set [2] (100 uM), the “IL-2 [ ]pg/ml (1)” value amounted to 1.15 pg/mL, the “IL-2 % Control (1)” value was determined as 5.64%, the “IL-2 [ ]pg/ml (2)” value is -19.30 pg/mL and the “IL-2 % Control (2)” value is reported as −29.56%. In addition, in data set [2] (100 uM), the “IL-2 [ ]pg/ml (3)” value is -3.13 pg/mL and the “IL-2 % Control (3)” value is −2.38%. The cell viability entry in the data set with Jurkat cells is reported as “without affecting cell viability”.
For “(R,S or SR)2-Benzyl-2,3-dihydro-1H,1′H-2,2′-biinden-1-ol [Compound 8]”, the “IL2 release from Jurkat cells” value in data set [2] is reported as “inhibited IL2 release”. In addition, in data set [2] (0.3 uM), the “IL-2 [ ]pg/ml (1)” value amounted to 44.20 pg/mL, the “IL-2 % Control (1)” value came to 216.67%, the “IL-2 [ ]pg/ml (2)” value is 50.10 pg/mL and the “IL-2 % Control (2)” value is 245.59%. In addition, in data set [2] (0.3 uM), the “IL-2 [ ]pg/ml (3)” value was found to be 107.03 pg/mL and the “IL-2 % Control (3)” value worked out at 77.39%. For the same compound, in data set [2] (1 uM), the “IL-2 [ ]pg/ml (1)” value worked out at 37.95 pg/mL, the “IL-2 % Control (1)” value came to 186.03%, the “IL-2 [ ]pg/ml (2)” value turned out to be 39.65 pg/mL and the “IL-2 % Control (2)” value is 194.36%. Also, in data set [2] (1 uM), the “IL-2 [ ]pg/ml (3)” value was determined as 111.75 pg/mL and the “IL-2 % Control (3)” value is recorded as 80.81%. Besides, in data set [2] (3 uM), the “IL-2 [ ]pg/ml (1)” value worked out at 34.45 pg/mL, the “IL-2 % Control (1)” value is reported as 168.87%, the “IL-2 [ ]pg/ml (2)” value worked out at 36.00 pg/mL and the “IL-2 % Control (2)” value turned out to be 176.47%. In addition, in data set [2] (3 uM), the “IL-2 [ ]pg/ml (3)” value stood at 102.92 pg/mL and the “IL-2 % Control (3)” value is given as 74.42%. In data set [2] (10 uM), the “IL-2 [ ]pg/ml (1)” value turned out to be 20.15 pg/mL, the “IL-2 % Control (1)” value was determined as 98.77%, the “IL-2 [ ]pg/ml (2)” value worked out at 25.65 pg/mL and the “IL-2 % Control (2)” value was 125.74%. In data set [2] (10 uM), the “IL-2 [ ]pg/ml (3)” value was 81.78 pg/mL and the “IL-2 % Control (3)” value is on record as 59.13%. In addition, in data set [2] (30 uM), the “IL-2 [ ]pg/ml (1)” value is -2.80 pg/mL, the “IL-2 % Control (1)” value was −13.73%, the “IL-2 [ ]pg/ml (2)” value is -3.00 pg/mL and the “IL-2 % Control (2)” value is recorded as −14.71%. Also, in data set [2] (30 uM), the “IL-2 [ ]pg/ml (3)” value turned out to be 76.25 pg/mL and the “IL-2 % Control (3)” value was 55.14%. In data set [2] (100 uM), the “IL-2 [ ]pg/ml (1)” value was -12.55 pg/mL, the “IL-2 % Control (1)” value is −61.52%, the “IL-2 [ ]pg/ml (2)” value was -12.80 pg/mL and the “IL-2 % Control (2)” value was −62.75%. In data set [2] (100 uM), the “IL-2 [ ]pg/ml (3)” value came out at 8.11 pg/mL and the “IL-2 % Control (3)” value stood at 5.87%. Also, the cell viability result in the data set with Jurkat cells is recorded as “without affecting cell viability”.

Values taken from US20150141523A1, “COMPOUNDS FOR USE IN THE TREATMENT OF AUTOIMMUNE INFLAMMATORY DISEASE” (Venantius Limited, priority 2012, published 2015).
